pEC50, pIC50: −log10 of the molar value.
Assays:
Cytochrome P450 2D6 = Cytochrome P450 2D6 (Homo sapiens, UniProt P10635); assay: Inhibition of CYP2D6 (unknown origin); format: ADME
[1] = test system: Human immunodeficiency virus 1; assay: Antiviral activity against HIV-1 L100I mutant infected in human MT4 cells assessed as reduction in viral replication by MTT assay; format: functional, organism-based; settings: Human immunodeficiency virus 1, L100I mutant
[2] = test system: Human immunodeficiency virus 1; assay: Antiviral activity against HIV-1 K103N mutant infected in human MT4 cells assessed as reduction in viral replication by MTT assay; format: functional, organism-based; settings: Human immunodeficiency virus 1, K103N mutant
[3] = test system: Human immunodeficiency virus 1; assay: Antiviral activity against HIV-1 E138K mutant infected in human MT4 cells assessed as reduction in viral replication by MTT assay; format: functional, organism-based; settings: Human immunodeficiency virus 1, E138K mutant
[4] = test system: Human immunodeficiency virus 1; assay: Antiviral activity against HIV-1 ROD infected in human MT4 cells assessed as reduction in viral replication by MTT assay; format: functional, organism-based
[5] = test system: Human immunodeficiency virus 1; assay: Antiviral activity against HIV-1 IIIB infected in human MT4 cells assessed as reduction in viral replication by MTT assay; format: functional, organism-based; settings: Human immunodeficiency virus 1, IIIB
[6] = Cytotoxicity against human MT4 cells assessed as reduction on cell growth by MTT assay; format: toxicity, cell-based
[7] = test system: Human immunodeficiency virus 1; assay: Antiviral activity against HIV-1 Y188L mutant infected in human MT4 cells assessed as reduction in viral replication by MTT assay; format: functional, organism-based; settings: Human immunodeficiency virus 1, Y188L mutant
[8] = test system: Human immunodeficiency virus 1; assay: Antiviral activity against HIV-1 K103N-Y181C mutant infected in human MT4 cells assessed as reduction in viral replication by MTT assay; format: functional, organism-based; settings: Human immunodeficiency virus 1, K103N-Y181C mutant
[9] = test system: Human immunodeficiency virus 1; assay: Antiviral activity against HIV-1 F227L-V106A mutant infected in human MT4 cells assessed as reduction in viral replication by MTT assay; format: functional, organism-based; settings: Human immunodeficiency virus 1, F227L-V106A mutant
[10] = target: Human immunodeficiency virus type 1 reverse transcriptase (Human immunodeficiency virus 1, UniProt Q72547); assay: Inhibition of wild type HIV-1 Reverse transcriptase
[11] = Selectivity index, ratio of CC50 for cytotoxicity against human MT4 cells to EC50 of Anti-HIV activity against HIV-1 IIIB infected in human MT4 cells; format: toxicity, cell-based; settings: read-out: Ratio CC50/EC50
[12] = test system: Human immunodeficiency virus 1; assay: Antiviral activity against HIV-1 Y181C mutant infected in human MT4 cells assessed as reduction in viral replication by MTT assay; format: functional, organism-based; settings: Human immunodeficiency virus 1, Y181C mutant
[13] = target: Voltage-gated inwardly rectifying potassium channel KCNH2 (Homo sapiens, UniProt Q12809); assay: Inhibition of human ERG potassium channel expressed in CHO cells by automated patch clamp electrophysiological assay; format: toxicity, cell-based
Voltage-gated inwardly rectifying potassium channel KCNH2, sequence (Q12809 whole entry): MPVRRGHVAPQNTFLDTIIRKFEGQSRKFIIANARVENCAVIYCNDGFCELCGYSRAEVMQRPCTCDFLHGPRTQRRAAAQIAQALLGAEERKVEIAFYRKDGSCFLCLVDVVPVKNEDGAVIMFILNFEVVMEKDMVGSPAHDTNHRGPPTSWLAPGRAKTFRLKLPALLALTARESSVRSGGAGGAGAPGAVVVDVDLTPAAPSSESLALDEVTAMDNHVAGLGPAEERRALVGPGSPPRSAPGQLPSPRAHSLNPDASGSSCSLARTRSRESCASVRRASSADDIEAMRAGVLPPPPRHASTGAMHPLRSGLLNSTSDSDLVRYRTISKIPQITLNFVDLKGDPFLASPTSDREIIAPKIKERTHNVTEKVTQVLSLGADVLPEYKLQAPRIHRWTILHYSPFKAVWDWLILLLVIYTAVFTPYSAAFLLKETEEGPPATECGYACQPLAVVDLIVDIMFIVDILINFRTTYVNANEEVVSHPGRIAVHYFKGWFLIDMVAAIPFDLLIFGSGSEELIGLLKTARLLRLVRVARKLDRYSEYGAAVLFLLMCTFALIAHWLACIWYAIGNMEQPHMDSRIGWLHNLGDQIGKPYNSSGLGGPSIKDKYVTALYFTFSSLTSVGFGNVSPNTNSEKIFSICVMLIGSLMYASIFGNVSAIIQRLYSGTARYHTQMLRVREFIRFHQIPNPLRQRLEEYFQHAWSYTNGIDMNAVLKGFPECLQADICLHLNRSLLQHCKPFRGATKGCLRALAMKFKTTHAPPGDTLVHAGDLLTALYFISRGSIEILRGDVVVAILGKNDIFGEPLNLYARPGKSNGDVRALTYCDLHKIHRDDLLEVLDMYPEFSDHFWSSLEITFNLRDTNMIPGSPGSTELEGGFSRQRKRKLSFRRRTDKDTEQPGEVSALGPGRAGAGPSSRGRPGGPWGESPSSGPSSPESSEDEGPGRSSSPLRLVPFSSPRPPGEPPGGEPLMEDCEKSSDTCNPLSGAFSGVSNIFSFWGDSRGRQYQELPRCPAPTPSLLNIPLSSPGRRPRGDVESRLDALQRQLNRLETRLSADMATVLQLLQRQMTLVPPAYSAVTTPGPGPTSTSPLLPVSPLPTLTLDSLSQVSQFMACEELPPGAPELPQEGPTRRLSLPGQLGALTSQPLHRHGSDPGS

Cytochrome P450 2D6, sequence (P10635 whole entry): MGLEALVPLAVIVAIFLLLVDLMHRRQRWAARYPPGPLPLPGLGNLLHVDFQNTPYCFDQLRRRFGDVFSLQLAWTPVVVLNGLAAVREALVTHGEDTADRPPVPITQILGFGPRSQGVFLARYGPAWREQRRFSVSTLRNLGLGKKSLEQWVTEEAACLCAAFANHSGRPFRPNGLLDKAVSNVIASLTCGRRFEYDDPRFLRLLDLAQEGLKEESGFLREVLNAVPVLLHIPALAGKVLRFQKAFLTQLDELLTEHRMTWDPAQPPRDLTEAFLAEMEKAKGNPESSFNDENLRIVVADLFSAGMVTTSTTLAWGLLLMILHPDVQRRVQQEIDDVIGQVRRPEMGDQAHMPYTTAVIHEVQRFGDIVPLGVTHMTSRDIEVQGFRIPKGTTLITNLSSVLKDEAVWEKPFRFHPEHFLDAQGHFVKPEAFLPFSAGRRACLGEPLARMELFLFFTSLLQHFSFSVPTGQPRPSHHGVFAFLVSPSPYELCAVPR

| SMILES | pIC50 (Cytochrome P450 2D6) | pEC50 [1] | pEC50 [2] | pEC50 [3] | pEC50 [4] | pEC50 [5] | CC50 [6] [µM] | pEC50 [7] | pEC50 [8] | pEC50 [9] | pIC50 [10] | selectivity ratio [11] | pEC50 [12] | pIC50 [13] |
| --- | --- | --- | --- | --- | --- | --- | --- | --- | --- | --- | --- | --- | --- | --- |
| COc1ccc2c(c1)[C@]13CCCC[C@@H]1[C@H](C2)N(C)CC3 [DEXTROMETHORPHAN] | 7.37 | – | – | – | – | – | – | – | – | – | – | – | – | – |
| Cc1ccc(-c2cc(C#N)cc(Oc3c(C(F)(F)F)ccn(Cc4n[nH]c(=O)n4C)c3=O)c2)cc1 | – | 7.01 | 6.27 | 6.82 | < 4.46 | 6.64 | > 267 | 5.78 | 5.29 | < 4.46 | 5.82 | > 1150 | 6.68 | – |
| Cn1c(Cn2ccc(C(F)(F)F)c(Oc3ccc(-c4ccc(F)c(C#N)c4)cc3Cl)c2=O)n[nH]c1=O | – | 5.48 | 5.41 | 5.17 | < 4.46 | 5.34 | 24.4 | < 4.46 | < 4.46 | < 4.46 | 4.99 | 5.39 | < 4.46 | – |
| Cc1cc(-c2ccc(F)c(C#N)c2)ccc1Oc1c(C(F)(F)F)ccn(Cc2n[nH]c(=O)n2C)c1=O | – | 5.56 | 5.80 | 5.64 | < 4.46 | 5.74 | 25 | < 4.46 | 5.07 | < 4.46 | 5.26 | 13.7 | 5.22 | – |
| Cn1c(Cn2ccc(C(F)(F)F)c(Oc3ccc(-c4ccc(F)c(C#N)c4)cc3F)c2=O)n[nH]c1=O | – | 5.14 | 5.14 | 5.11 | < 4.46 | 5.29 | 65.5 | 4.35 | < 4.46 | < 4.46 | 5.15 | 12.8 | 4.40 | – |
| Cn1c(Cn2ccc(C(F)(F)F)c(Oc3cc(Cl)cc(C#N)c3)c2=O)n[nH]c1=O [DORAVIRINE] | – | 8.18 | 7.38 | 8.12 | < 4.46 | – | 293 | 6.30 | 6.85 | 4.76 | 7.36 | 22600 | 7.60 | 4.06 |
| COc1cc(-c2ccc(C#N)cc2)ccc1Oc1c(C(F)(F)F)ccn(Cc2n[nH]c(=O)n2C)c1=O | – | 5.42 | 4.89 | 4.71 | < 4.46 | 5.10 | 142 | < 4.46 | < 4.46 | < 4.46 | 4.61 | 17.6 | 4.67 | – |
| Cn1c(Cn2ccc(C(F)(F)F)c(Oc3ccc(-c4ccc(C#N)cc4)cc3)c2=O)n[nH]c1=O | – | 5.11 | 4.57 | 4.62 | < 4.46 | 5.21 | 74.3 | < 4.46 | < 4.46 | < 4.46 | 4.80 | 11.9 | 4.41 | – |
| Cn1c(Cn2ccc(C(F)(F)F)c(Oc3ccc(-c4cc(F)cc(C#N)c4)cc3Cl)c2=O)n[nH]c1=O | – | 5.62 | 5.48 | 5.48 | < 4.46 | 5.47 | 19.3 | < 4.46 | < 4.46 | < 4.46 | 5.36 | 5.71 | 5.15 | – |
| COc1cc(-c2cccc(C#N)c2)ccc1Oc1c(C(F)(F)F)ccn(Cc2n[nH]c(=O)n2C)c1=O | – | 5.25 | 4.92 | 4.73 | < 4.46 | 5.07 | 126 | < 4.46 | < 4.46 | < 4.46 | 4.54 | 14.8 | 4.87 | – |
| Cn1c(Cn2ccc(C(F)(F)F)c(Oc3c(F)cc(-c4ccc(C#N)cc4)cc3F)c2=O)n[nH]c1=O | – | 5.77 | 5.94 | 5.84 | < 4.46 | 6.14 | 21.2 | < 4.46 | < 4.46 | < 4.46 | 5.50 | 29.5 | 5.30 | – |
| Cc1cc(Oc2c(C(F)(F)F)ccn(Cc3n[nH]c(=O)n3C)c2=O)ccc1-c1ccc(F)c(C#N)c1 | – | 5.80 | 5.63 | 5.86 | < 4.46 | 6.22 | 42.5 | < 4.46 | < 4.46 | < 4.46 | 5.84 | 70.6 | 5.16 | – |
| Cn1c(Cn2ccc(C(F)(F)F)c(Oc3ccc(-c4cccc(C#N)c4)cc3Cl)c2=O)n[nH]c1=O | – | 5.63 | 5.53 | 5.45 | < 4.46 | 5.39 | 22.9 | < 4.46 | < 4.46 | < 4.46 | 5.14 | 5.62 | < 4.46 | – |
| Cn1c(Cn2ccc(C(F)(F)F)c(Oc3ccc(-c4cc(F)cc(C#N)c4)cc3)c2=O)n[nH]c1=O | – | 5.05 | 4.81 | 4.86 | < 4.46 | 4.82 | 90.5 | < 4.46 | < 4.46 | < 4.46 | 5.09 | 5.95 | 4.37 | – |
| Cn1c(Cn2ccc(C(F)(F)F)c(Oc3ccc(-c4ccc(C#N)cc4)c(F)c3)c2=O)n[nH]c1=O | – | 5.92 | 5.44 | 5.71 | < 4.46 | 5.89 | 48.5 | < 4.46 | < 4.46 | < 4.46 | 5.82 | 37.8 | 4.71 | – |
| Cn1c(Cn2ccc(C(F)(F)F)c(Oc3ccc(-c4cccc(C#N)c4)cc3F)c2=O)n[nH]c1=O | – | 5.31 | 5.13 | 5.27 | < 4.46 | 5.43 | 35.3 | < 4.46 | < 4.46 | < 4.46 | 5.30 | 9.6 | < 4.46 | – |
